# Results published in the supplement of paper PMC7017272.
# ± gives the standard deviation of the averaged measurements.
# How the values were obtained:
# Conditions in all cases: treatment time: 3 days
# UT-SCC-24A = assay: relative IC50 (midpoint of the fitted curve; maximal inhibition may be below 50%); higher = less potent
# Description: (§1)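 HNSCC cell lines (500 cells/well, 384-well) were cultured on plastic, on top of (2D) or embedded (3D) in Matrigel or human leiomyoma matrix Myogel (500 ug/mL; Myogel 3D mixed with rat collagen I). Cells were treated for 3 days with 5 ten-fold concentrations of each drug, and viability was read by CellTiter-Glo. Viability was normalised to DMSO (0% inhibition) and 100 uM benzethonium chloride (100% inhibition) controls and fitted with the FIMM DSRT pipeline to give IC50 (nM), maximal % inhibition and the drug sensitivity score (DSS). Suffixes _1/_2/_3 on drug names are replicates.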
# UT-SCC-106A = assay: relative IC50 (midpoint of the fitted curve; maximal inhibition may be below 50%); higher = less potent
# Procedure, shortened: (§2)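 HPV-negative HNSCC cell lines were seeded at 500 cells/well in 384-well plates on plastic, on Matrigel- or Myogel-coated wells (500 µg/mL), or embedded in Matrigel or Myogel plus rat collagen I. Compounds were given at five 10-fold concentrations for 3 days, and viability was read by CellTiter-Glo 2.0 luminescence. Signals were normalised to vehicle (0.1% DMSO) and cell-killing control wells. Percent-inhibition dose–response curves were fitted in the FIMM pipeline to derive IC50, maximal inhibition and drug sensitivity score.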
# UT-SCC-73 = assay: as above
# Procedure, shortened: as §2
# UT-SCC-44 = assay: as above
# Procedure, shortened: as §2
# UT-SCC-42A [1] = assay: as above
# Procedure, shortened: as §2
# UT-SCC-14 [2] = assay: as above
# Procedure, shortened: as §2
# UT-SCC-28 [3] = assay: as above
# Procedure, shortened: as §2
# UT-SCC-81 [4] = assay: as above
# Procedure, shortened: as §2
# UT-SCC-8 [5] = assay: as above
# Procedure, shortened: as §2
# UT-SCC-40 [6] = assay: as above
# Procedure, shortened: as §2
# UT-SCC-24B [7] = assay: as above
# Procedure, shortened: as §2
# UT-SCC-42B [8] = assay: as above
# Procedure, shortened: as §2
# UT-SCC-42A [9] = assay: maximal % inhibition of viability relative to DMSO; higher = stronger effect
# Description: as §1, with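 “DMSO” for “DMSO (0% inhibition)”, “and” for “and 100 uM”, “chloride” for “chloride (100% inhibition)”, “DSS.” for “the drug sensitivity score (DSS).”, “_1/_2/_3” for “_1/_2/_3 on drug names”, “replicates. Only inhibition-mode (IC50) fits are kept.” for “replicates.”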
# UT-SCC-14 [10] = assay: as above
# Description: as §1, with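 “DMSO” for “DMSO (0% inhibition)”, “and” for “and 100 uM”, “chloride” for “chloride (100% inhibition)”, “DSS.” for “the drug sensitivity score (DSS).”, “_1/_2/_3” for “_1/_2/_3 on drug names”, “replicates. Only inhibition-mode (IC50) fits are kept.” for “replicates.”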
# UT-SCC-28 [11] = assay: as above
# Description: as §1, with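 “DMSO” for “DMSO (0% inhibition)”, “and” for “and 100 uM”, “chloride” for “chloride (100% inhibition)”, “DSS.” for “the drug sensitivity score (DSS).”, “_1/_2/_3” for “_1/_2/_3 on drug names”, “replicates. Only inhibition-mode (IC50) fits are kept.” for “replicates.”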
# UT-SCC-81 [12] = assay: as above
# Description: as §1, with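 “DMSO” for “DMSO (0% inhibition)”, “and” for “and 100 uM”, “chloride” for “chloride (100% inhibition)”, “DSS.” for “the drug sensitivity score (DSS).”, “_1/_2/_3” for “_1/_2/_3 on drug names”, “replicates. Only inhibition-mode (IC50) fits are kept.” for “replicates.”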
# UT-SCC-8 [13] = assay: as above
# Description: as §1, with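 “DMSO” for “DMSO (0% inhibition)”, “and” for “and 100 uM”, “chloride” for “chloride (100% inhibition)”, “DSS.” for “the drug sensitivity score (DSS).”, “_1/_2/_3” for “_1/_2/_3 on drug names”, “replicates. Only inhibition-mode (IC50) fits are kept.” for “replicates.”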
# UT-SCC-40 [14] = assay: as above
# Description: as §1, with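 “DMSO” for “DMSO (0% inhibition)”, “and” for “and 100 uM”, “chloride” for “chloride (100% inhibition)”, “DSS.” for “the drug sensitivity score (DSS).”, “_1/_2/_3” for “_1/_2/_3 on drug names”, “replicates. Only inhibition-mode (IC50) fits are kept.” for “replicates.”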
# UT-SCC-24B [15] = assay: as above
# Description: as §1, with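 “DMSO” for “DMSO (0% inhibition)”, “and” for “and 100 uM”, “chloride” for “chloride (100% inhibition)”, “DSS.” for “the drug sensitivity score (DSS).”, “_1/_2/_3” for “_1/_2/_3 on drug names”, “replicates. Only inhibition-mode (IC50) fits are kept.” for “replicates.”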
# UT-SCC-42B [16] = assay: as above
# Description: as §1, with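 “DMSO” for “DMSO (0% inhibition)”, “and” for “and 100 uM”, “chloride” for “chloride (100% inhibition)”, “DSS.” for “the drug sensitivity score (DSS).”, “_1/_2/_3” for “_1/_2/_3 on drug names”, “replicates. Only inhibition-mode (IC50) fits are kept.” for “replicates.”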
# [17] = culture condition: on top of Matrigel
# [18] = culture condition: on top of Myogel
# [19] = culture condition: plastic 2D (no matrix)
# [20] = culture condition: embedded in Matrigel
# [21] = culture condition: embedded in Myogel + collagen I
smiles,measurement,setting,value
Cn1c(=O)n(-c2ccc(C(C)(C)C#N)cc2)c2c3cc(-c4cnc5ccccc5c4)ccc3ncc21 [Dactolisib],relative IC50,UT-SCC-24A; [17],> 989 nM
same,relative IC50,UT-SCC-24A; [18],> 989 nM
same,relative IC50,UT-SCC-24A; [19],> 989 nM
same,relative IC50,UT-SCC-106A; [20],> 989 nM
same,relative IC50,UT-SCC-106A; [17],> 989 nM
same,relative IC50,UT-SCC-106A; [18],> 989 nM
same,relative IC50,UT-SCC-73; [21],> 989 nM
same,relative IC50,UT-SCC-73; [18],> 989 nM
same,relative IC50,UT-SCC-73; [19],> 989 nM
same,relative IC50,UT-SCC-44; [20],> 989 nM
same,relative IC50,UT-SCC-44; [21],> 989 nM
same,relative IC50,UT-SCC-42A [1]; [20],> 989 nM
same,relative IC50,UT-SCC-42A [1]; [21],> 989 nM
same,relative IC50,UT-SCC-42A [1]; [17],> 989 nM
same,relative IC50,UT-SCC-42A [1]; [18],> 989 nM
same,relative IC50,UT-SCC-42A [1]; [19],> 989 nM
same,relative IC50,UT-SCC-14 [2]; [21],> 989 nM
same,relative IC50,UT-SCC-14 [2]; [18],> 989 nM
same,relative IC50,UT-SCC-28 [3]; [20],> 989 nM
same,relative IC50,UT-SCC-28 [3]; [19],> 989 nM
same,relative IC50,UT-SCC-81 [4]; [21],> 989 nM
same,relative IC50,UT-SCC-81 [4]; [18],> 989 nM
same,relative IC50,UT-SCC-81 [4]; [19],> 989 nM
same,relative IC50,UT-SCC-8 [5]; [20],> 989 nM
same,relative IC50,UT-SCC-8 [5]; [19],> 989 nM
same,relative IC50,UT-SCC-40 [6]; [18],> 989 nM
same,relative IC50,UT-SCC-40 [6]; [19],> 989 nM
same,relative IC50,UT-SCC-24B [7]; [20],55.5 nM
same,relative IC50,UT-SCC-24B [7]; [21],22.1 nM
same,relative IC50,UT-SCC-24B [7]; [17],33.4 nM
same,relative IC50,UT-SCC-24B [7]; [18],31.3 nM
same,relative IC50,UT-SCC-24B [7]; [19],34.7 nM
same,relative IC50,UT-SCC-42B [8]; [20],> 989 nM
same,relative IC50,UT-SCC-42B [8]; [17],> 989 nM
same,relative IC50,UT-SCC-42B [8]; [18],> 989 nM
same,relative IC50,UT-SCC-42B [8]; [19],> 989 nM
same,maximal % inhibition of viability,UT-SCC-42A [9]; [20],0.767 ± 1.3%
same,maximal % inhibition of viability,UT-SCC-42A [9]; [21],6.03 ± 5.7%
same,maximal % inhibition of viability,UT-SCC-42A [9]; [17],9.57 ± 4.9%
same,maximal % inhibition of viability,UT-SCC-42A [9]; [18],4.37 ± 2.7%
same,maximal % inhibition of viability,UT-SCC-42A [9]; [19],8.8 ± 3.1%
same,maximal % inhibition of viability,UT-SCC-14 [10]; [20],16.8 ± 19%
same,maximal % inhibition of viability,UT-SCC-14 [10]; [21],16.2 ± 15%
same,maximal % inhibition of viability,UT-SCC-14 [10]; [17],7.17 ± 5.8%
same,maximal % inhibition of viability,UT-SCC-14 [10]; [18],7.03 ± 7.9%
same,maximal % inhibition of viability,UT-SCC-14 [10]; [19],11.7 ± 10%
same,maximal % inhibition of viability,UT-SCC-28 [11]; [20],19.7 ± 5%
same,maximal % inhibition of viability,UT-SCC-28 [11]; [21],9.5 ± 12%
same,maximal % inhibition of viability,UT-SCC-28 [11]; [17],13.3 ± 2.7%
same,maximal % inhibition of viability,UT-SCC-28 [11]; [19],8.33 ± 5.8%
same,maximal % inhibition of viability,UT-SCC-81 [12]; [20],40.7 ± 33%
same,maximal % inhibition of viability,UT-SCC-81 [12]; [21],7.33 ± 3.7%
same,maximal % inhibition of viability,UT-SCC-81 [12]; [17],5.13 ± 5.4%
same,maximal % inhibition of viability,UT-SCC-81 [12]; [18],11.2 ± 3.1%
same,maximal % inhibition of viability,UT-SCC-81 [12]; [19],6.5 ± 2.2%
same,maximal % inhibition of viability,UT-SCC-8 [13]; [20],8.63 ± 5.4%
same,maximal % inhibition of viability,UT-SCC-8 [13]; [21],18.3 ± 10%
same,maximal % inhibition of viability,UT-SCC-8 [13]; [17],13.2 ± 5.7%
same,maximal % inhibition of viability,UT-SCC-8 [13]; [18],9.7 ± 6.6%
same,maximal % inhibition of viability,UT-SCC-8 [13]; [19],6.9 ± 6.6%
same,maximal % inhibition of viability,UT-SCC-40 [14]; [20],18.2 ± 15%
same,maximal % inhibition of viability,UT-SCC-40 [14]; [21],8.93 ± 7.8%
same,maximal % inhibition of viability,UT-SCC-40 [14]; [17],9.4 ± 3.6%
same,maximal % inhibition of viability,UT-SCC-40 [14]; [18],7.2 ± 4.8%
same,maximal % inhibition of viability,UT-SCC-40 [14]; [19],2.4 ± 2.4%
same,maximal % inhibition of viability,UT-SCC-24B [15]; [20],77.4 ± 0.93%
same,maximal % inhibition of viability,UT-SCC-24B [15]; [21],83.8 ± 1.4%
same,maximal % inhibition of viability,UT-SCC-24B [15]; [17],78.6 ± 1.1%
same,maximal % inhibition of viability,UT-SCC-24B [15]; [18],78.2 ± 1.9%
same,maximal % inhibition of viability,UT-SCC-24B [15]; [19],76.2 ± 2.5%
same,maximal % inhibition of viability,UT-SCC-42B [16]; [20],12.9 ± 6%
same,maximal % inhibition of viability,UT-SCC-42B [16]; [17],10.9 ± 6.9%
same,maximal % inhibition of viability,UT-SCC-42B [16]; [18],6.13 ± 1.8%
same,maximal % inhibition of viability,UT-SCC-42B [16]; [19],1.67 ± 0.57%
